Key:
Assay type in all cases: cell-based
[1] = biological target: T1, human prostanoid EP1 receptor (Homo sapiens, UniProt P34995); assay: FLIPR Ca2+ signaling PG antagonist assay, EP1 stable cell line; conditions: HEK-293 EBNA cells, human recombinant EP1, no exogenous G-protein; standard agonist PGE2
T1 construct: expressed in transfected cells
T1 sequence (P34995 1-402): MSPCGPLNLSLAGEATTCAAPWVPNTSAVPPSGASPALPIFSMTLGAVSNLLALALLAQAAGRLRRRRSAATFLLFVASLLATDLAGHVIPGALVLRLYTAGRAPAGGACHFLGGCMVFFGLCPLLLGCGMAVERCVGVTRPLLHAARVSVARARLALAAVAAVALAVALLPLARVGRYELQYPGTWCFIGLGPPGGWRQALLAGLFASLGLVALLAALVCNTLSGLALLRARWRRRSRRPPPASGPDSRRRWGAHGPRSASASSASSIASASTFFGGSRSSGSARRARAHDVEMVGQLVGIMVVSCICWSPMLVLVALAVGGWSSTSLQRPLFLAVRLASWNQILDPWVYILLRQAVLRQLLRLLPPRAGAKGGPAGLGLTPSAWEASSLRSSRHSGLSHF
How it was run: (§1)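 HEK-293 EBNA stable lines; EP2 co-expressed with chimeric Gqs, EP1/IP/TP with no exogenous G protein. Fluo-4AM-loaded cells pretreated 4.5 min at 37 °C with compound (0.1–30 μM; TP 0.067–1 μM), then standard agonist (PGE2, cicaprost, U-46619) 10^−11–10^−5 M (TP 10^−12–10^−6 M); peak fluorescence read 3.5 min, nonlinear regression.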

[2] = biological target: T2, human prostanoid EP4 receptor (Homo sapiens, UniProt P35408); assay: FLIPR Ca2+ signaling PG antagonist assay, EP4 stable cell line; conditions: HEK-293 EBNA cells, human recombinant EP4 with chimeric Gqs; standard agonist PGE2
T2 construct: expressed in transfected cells
T2 sequence (P35408 whole entry): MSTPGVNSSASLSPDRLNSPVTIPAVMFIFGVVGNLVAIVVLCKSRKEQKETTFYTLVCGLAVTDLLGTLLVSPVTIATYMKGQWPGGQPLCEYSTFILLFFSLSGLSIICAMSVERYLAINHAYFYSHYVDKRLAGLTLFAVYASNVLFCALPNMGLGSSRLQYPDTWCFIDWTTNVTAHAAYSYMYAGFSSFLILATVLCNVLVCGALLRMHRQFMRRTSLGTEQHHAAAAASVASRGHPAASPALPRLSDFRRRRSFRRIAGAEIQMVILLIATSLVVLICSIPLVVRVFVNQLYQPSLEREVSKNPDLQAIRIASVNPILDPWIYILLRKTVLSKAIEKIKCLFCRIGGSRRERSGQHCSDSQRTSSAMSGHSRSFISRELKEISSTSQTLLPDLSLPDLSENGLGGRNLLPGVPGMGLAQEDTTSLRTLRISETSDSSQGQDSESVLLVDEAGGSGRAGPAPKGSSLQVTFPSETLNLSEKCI
How it was run: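 Antagonism at human EP4 was assessed as a Ca^2+ signal in stable HEK-293 EBNA transfectants carrying chimeric Gqs. Dye-loaded cells in HBSS-HEPES at 37° C received test compound, then a 7-point 10-fold PGE2 series. Fluorescence was excited at 470-495 nm and read at 515-575 nm for 3.5 minutes, with each condition run in triplicate and buffer used as the negative control.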

[3] = biological target: T3, human prostanoid TP receptor (Homo sapiens, UniProt P21731); assay: FLIPR Ca2+ signaling PG antagonist assay, TP stable cell line; conditions: HEK-293 EBNA cells, human recombinant TP, no exogenous G-protein; standard agonist U-46619
T3 construct: expressed in transfected cells
T3 sequence (P21731 1-343): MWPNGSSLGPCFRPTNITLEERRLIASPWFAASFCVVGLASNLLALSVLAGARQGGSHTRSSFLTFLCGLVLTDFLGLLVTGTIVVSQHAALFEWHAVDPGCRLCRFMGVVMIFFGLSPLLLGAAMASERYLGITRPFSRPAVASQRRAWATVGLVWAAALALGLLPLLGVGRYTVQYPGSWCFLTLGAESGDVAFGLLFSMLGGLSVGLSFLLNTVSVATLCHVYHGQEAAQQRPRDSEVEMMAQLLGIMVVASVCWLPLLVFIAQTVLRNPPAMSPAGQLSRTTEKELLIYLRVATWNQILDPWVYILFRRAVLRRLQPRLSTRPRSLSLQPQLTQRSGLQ
How it was run: as §1

| SMILES | Kb [1] [nM] | Kb [2] [nM] | Kb [3] [nM] |
| --- | --- | --- | --- |
| CCC(CC)COc1ccc(Cl)cc1Cn1ncc2c(C(=O)O)cccc21 [Example 38, 1-[5-Chloro-2-(2-Ethyl-Butoxy)-Benzyl]-1H-Indazole-4-Carboxylic Acid] | 70 | 400 | 3 |
| O=C(O)c1ccc2cnn(Cc3cc(Br)ccc3OCC3CCCC3)c2c1 [Example 44, 1-(5-Bromo-2-Cyclopentylmethoxy-Benzyl)-1H-Indazole-6-Carboxylic Acid] | 240 | 3200 | 1 |
| CC(C)COc1cc(Cl)c(Cl)cc1Cn1ncc2cc(C(=O)O)ccc21 [Example 49, 1-(4,5-Dichloro-2-Isobutoxy-Benzyl)-1H-Indazole-5-Carboxylic Acid] | 540 | 50 | 6 |
| CC(C)COc1ccc(Cl)cc1Cn1cc2c(C(=O)O)cccc2n1 [Example 37, 2-(5-Chloro-2-Isobutoxy-Benzyl)-2H-Indazole-4-Carboxylic Acid] | 480 | 700 | 200 |
| CC(C)COc1ccc(Br)cc1Cn1cnc2cc(C(=O)O)ccc21 [Example 79, 1-(5-Bromo-2-Isobutoxy-Benzyl)-1H-Benzoimidazole-5-Carboxylic Acid] | 11 | 80 | 8 |
| Cc1ccc(OCC(C)C)c(Cn2ncc3cc(C(=O)O)ccc32)n1 [Example 50, 1-(3-Isobutoxy-6-Methyl-Pyridin-2-ylmethyl)-1H-Indazole-5-Carboxylic Acid] | 90 | 1800 | 5700 |

Source: patent US10988474B2, “Compounds acting at multiple prostaglandin receptors giving a general anti-inflammatory response” (ALLERGAN, INC., priority 2011, dated 2021)
